Legend:
[1] = tested on: mouse model of cerebral ischemia (MCAO); stroke-induced immunodepression and bacterial infection; experiment: Immunomodulating therapy in mouse model of cerebral ischemia (MCAO): lymphopenia, lymphocyte/monocyte function, infections, survival; type: in vivo
Description: (§1) According to the mouse model of cerebral ischemia, mice were operated according to the MCAO. In this operation, the A. cerebri media is occluded for about 60 minutes, leading to a cerebral infarction typical for this model. As a control, we use the so-called Sham-operation, in which the animals are also MCAO-operated, but in which the A. cerebri media is only occluded for about 1 minute. For the rest, the two paradigms are identical. Thus, the perioperative stress can be doubtlessly excluded as a systemic mistake for the following results.
This severe lymphopenia persists at least for 14 days and also affects the spleen and the thymus (FIG. 6:d-g), which constitute essential organs of immunological maturation. Besides the mere numeric decrease, there also occurs a functional impairment with a disturbance of the cytokine secretion capacity after stimulation (FIG. 6: h and j). Besides the disturbance of monocyte function, which manifests as a disturbance of TNF-α secretion for 2 days after LPS-stimulation, one can also detect a lymphocyte alteration after ConA-stimulation; this alteration persisting for 14 days after the stroke and mainly causing a Th1- to Th2-shift (alteration of the IFN-γ/IL4 ratio), which means a loss of pro-inflammatory potential. […] B- and NK-cells only slightly decrease in the blood after the OP-stress. In the spleen and in the thymus, no major stress-induced alterations are detected and the functional parameters of the monocytes and lymphocytes remain at the control level. […] In contrast to this, no infection is found in the control animals (Sham-operated).
Furthermore, the blockade of the SNS by propranolol (30 mg/kg body weight) also prevents the disturbance of function of the remaining monocytes (TNF-α secretion) and of the lymphocytes (IFN-γ/IL-4 ratio) (FIG. 7). The SNS blockade can also prevent the development of infections in the lung (pneumonia) and in the blood (sepsis) (FIG. 7). The dose of propranolol (indicated as mg/kg body weight), which is required for the prevention or drastic reduction of the bacterial infections, also prevents the disturbed INF-γ secretion of the lymphocytes (FIG. 8). To this aim, the administration of propranolol has to be accomplished at a very early stage (immediately up to 12 hours) after the stroke. An application 24 hours after the stroke event has no effect (FIG. 8). An early (before the stroke) chemical sympathicolysis by 6-hydroxydopamin (6-OHDA) as well prevents the stroke-induced, disturbed INF-γ function of the lymphocytes and blocks the severe bacterial infections (FIG. 8).

[2] = tested on: mouse model of cerebral ischemia (MCAO); stroke-induced spontaneous bacterial infection (more than 95% Escherichia coli)
Description: as §1, with “ischemia, a generally accepted model of ischemic stroke,” for “ischemia,”, “identical.” for “identical. Thus, the perioperative stress can be doubtlessly excluded as a systemic mistake for the following results.”

[3] = early (before the stroke) chemical sympathicolysis, FIG. 8
[4] = after experimental stroke in mice, FIG. 7

Q: `NCCc1cc(O)c(O)cc1O` [6-hydroxydopamin (6-OHDA), 6-hydroxydopamin] was tested. Which severe bacterial infections [1, 3] did it give?
A: blocks

Q: And the “stroke-induced, disturbed INF-γ function of the lymphocytes” value [1, 3]?
A: prevents

Q: What does the source list for `COc1c(N2C[C@@H]3CCCN[C@@H]3C2)c(F)cc2c(=O)c(C(=O)O)cn(C3CC3)c12` [moxifloxacin, 1-cyclopropyl-6-fluoro-1,4-dihydro-8-methoxy-7-[(4aS,7aS)-octahydro-6H-pyrrolo[3,4-b]-pyridin-6-yl]-4-oxoquinoline-3-carboxylic acid]?
A: neurological deficit ([2]; early administration within the first 24 h): drastically reduced; infections (pneumonia, sepsis) ([2]; very early (0-12 h) and somewhat later (12-24 h after acute stroke) treatment scheme): prevented; fever/hyperthermia ([2]; very early (0-12 h) and somewhat later (12-24 h after acute stroke) treatment scheme, FIG. 3): significantly reduced; neurological deficit after stroke ([2]; very early (0-12 h) and somewhat later (12-24 h after acute stroke) treatment scheme, FIG. 5): significantly reduced

Q: How did the “disturbance of function of the lymphocytes (IFN-γ/IL-4 ratio)” value ([1]; 30 mg/kg body weight, FIG. 7) turn out when `CC(C)NCC(O)COc1cccc2ccccc12` (centres unmarked) [propranolol] was run?
A: prevents

Q: And the “disturbance of function of the remaining monocytes (TNF-α secretion)” value ([1]; 30 mg/kg body weight, FIG. 7)?
A: prevents

Q: What about the survival after stroke ([1]; 30 mg/kg body weight, FIG. 10) of the same molecule?
A: drastically improve

Q: And the infections ([1]; 30 mg/kg body weight, FIGS. 7 and 8)?
A: prevent

Q: What about the “development of infections in the lung (pneumonia) and in the blood (sepsis)” value ([1]; SNS blockade, FIG. 7) of the same molecule?
A: prevent

Q: And the “decrease of T- and NK-cells” value [1, 4]?
A: prevent

Q: What about the “degree of B-cell lymphopenia” value [1, 4] of the same molecule?
A: significantly reduce

Q: What about the “effect on bacterial infections and INF-γ secretion of application 24 hours after the stroke event” value ([1]; application 24 hours after the stroke, FIG. 8) of the same molecule?
A: no effect

Q: What about the “disturbed INF-γ secretion of the lymphocytes” value ([1]; dose required for prevention of bacterial infections, administration immediately up to 12 hours after the stroke, FIG. 8) of the same molecule?
A: prevents

B1: IFN-γ: pro-inflammatory cytokine, interferon (protein, UniProt P01579 24-161, looked up)
Interferon gamma: QDPYVKEAENLKKYFNAGHSDVADNGTLFLGILKNWKEESDRKIMQSQIVSFYFKLFKNFKDDQSIQKSVETIKEDMNVKFFNSNKKKRDDFEKLTNYSVTDLNVQRKAIHELIQVMAELSPAAKTGKRKRSQMLFRG
Q: Which “germ number in the lung” value ([1]; 2 μg, FIG. 9) does the source give for B1 here?
A: reduce

Q: And the “germ number in the blood” value ([1]; 2 μg, even more pronounced than in the lung, FIG. 9)?
A: reduce
